Laboratory results published in patent publication US20170182015A1, “METHODS OF USING SNS-595 FOR TREATMENT OF CANCER SUBJECTS WITH REDUCED BRCA2 ACTIVITY” (Sunesis Pharmaceuticals, Inc., priority 2009, published 2017).

Key:
[1] = system: VC8 cells (BRCA2 mutant); experiment: Growth inhibition (proliferation) assay in BRCA2 mutant cells; format: cell-based, Chinese hamster; settings: for IC50: Cricetulus griseus, V-C8, VC8 cells mutant for BRCA2, 4 hr treatment, 120 hr incubation, resazurin; for increase in sensitivity in cells mutant for BRCA2 as compared to cells expressing functional BRCA2: VC8 vs VC8-B2, ratio of IC50
Protocol: (§1) The VC8 and VC8-B2 cell lines originate from V79 Chinese hamster […] fibroblast cells. VC8 has a mutation in the brca2 gene and VC8-B2 is this cell line complemented with the human chromosome 13 (containing the brca2 gene; […] Zwet et al., Mol Cell Biol, 2002, 22(2):669-679). The influence of BRCA2 on sensitivity to SNS-595 was evaluated by a proliferation assay in Chinese hamster cells mutant (VC8) and complemented for functional BRCA2 (VC8-B2). […] The following protocol was used for the assay: 1. 4000 cells/well were plated in a 96-well plate such that half of the plate contained VC8 cells, and other half contained VC8-B2 cells. The last column was left cell-free as background control. 2. The plate was incubated at 37° C. with 5% CO2. 1. The media was removed and 50 μL of fresh media was added into each well. 2. […] 3. 100 μL from the first column was transferred into second column and mixed. 100 μL from the second column was transferred into third column and mixed and so on until end of plate. One column was left untreated. The plate was incubated at 37° C. with 5% CO2. […] After 4 hr treatment, plate was washed twice with 100 μL PBS and 250 μL media was added. The plate was incubated at 37° C. with 5% CO2. 1. After 120 hr incubation, the plate was washed with 100 μL PBS and 100 μL resaszurin (10 μg/mL in phenol red-free complete DMEM) was added. 2.

[2] = system: U-2 OS cells; experiment: Colony outgrowth assay (clonogenic survival), wild-type vs BRCA2 siRNA depleted; format: cell-based, human; settings: 14 days
Protocol: Activity of SNS-595 in these assays was evaluated by clonogenic survival and compared with doxorubicin. The following protocol was used for the assay:
1. 200,000 cells were plated in each of 2 wells in a 6-well plate, and incubated over night at 37° C. and 5% CO2 atmosphere.
A: Test: 50 μL of 2 μM siBRCA2 (si Genome SMARTpool, Dharmacon)+150 μL OptiMEM (Gibco)
B: Control (no siRNA): 200 μL OptiMEM
C: 2 μL DharmaFect 1 (Dharmacon)+198 μL OptiMEM
2. Reagents were allowed to stand at room temperature for 5 minutes.
3. Reagents A+C and B+C were mixed and allowed to stand at room temperature for 20 min.
4. The media in wells was replaced with 1.6 mL of antibiotic-free media (DMEM, Gibco).
5. 400 μL of reagents A+B or B+C were added and mixed in wells. The plate was incubated at 37° C.
1. After 24 hr of siRNA treatment, cells were trypsinized and counted.
2. Cells were plated in 100 mm dishes at 500 or 1000 cells/dish in 10 mL media and incubated for 4 hr.
3. After 4 hr, test substances were added and plates were incubated for 14 days.
1. The plates were harvested and cells were fixed in methylene blue (4g/L in methanol) and colonies containing more than 50 cells were counted.

[3] = system: VC8-B2 cells (complemented for functional BRCA2); experiment: Growth inhibition (proliferation) assay in BRCA2 complemented cells; format: cell-based, Chinese hamster; settings: Cricetulus griseus; VC8-B2 cells expressing functional BRCA2; 4 hr treatment, 120 hr incubation, resazurin
Protocol: as §1

[4] = system: SPD8 cells; experiment: Recombination assay: cloning efficiency; format: cell-based, Chinese hamster; settings: SNS-595 2 μM, doxorubicin 0.5 μM; for cloning efficiency: alone, 4 hr treatment; for effect of aphidicolin (S-phase blocker) co-treatment on cytotoxicity: co-treatment with aphidicolin 0.5 μM
Source text: (§2) The SPD8 cell line carries a spontaneously derived mutation in the hprt gene and was isolated as a 6-thioguanine (6TG) resistant clone from the V79 Chinese hamster fibroblast cell line. The mutation within the hprt gene is a tandem duplication of exon 7, intron 6, and the 3′ portion of exon 6 that results in expression of a non-functional HPRT protein (Darè et al., Somat Cell Mol Genet, 1996, 22:201-210; and Helleday et al., J Mol Biol, 1998, 279(4):687-694). This duplication can be lost through HR that revert the hprt gene to wild-type, which can be selected for in HAsT (50 μM hypoxanthine, 10 μM L-azaserine, 5 μM thymidine) (Helleday et al. 1998). The DMEM was supplemented with 6TG (5 μg/mL) in order to kill cells that undergo spontaneous reversion. The addition of 6TG at this concentration affects neither the growth rate of these mutants nor the recombination assay procedure.
(§3) Each flask (75 cm^2) was inoculated with 1.5×10^6 SPD8 cells 24 hr prior to treatment with SNS-595 (2 μM) or doxorubicin (0.5 μM) and in co-treatment with aphidicolin (0.5 μM). After 4 hr of treatment, flasks were rinsed twice with PBS and 20 mL DMEM was added. Cells were then incubated for 48 hr to recover before plating onto Petri dishes. Cloning efficiency was measured by plating 500 cells in 10 mL of medium, two Petri dishes per dose. HPRT+ revertants were selected for by plating 3×10^5 cells/dish in the presence of HAsT (50 μM hypoxanthine,10 μM L-azaserine, 5μM thymidine), three dishes per dose. After 7 and 10 days, respectively, the plates were harvested and the colonies were fixed and stained using methylene blue in methanol (4 g/L). Colonies containing more than 50 cells were counted.

[5] = system: SPD8 cells (hprt gene reversion by homologous recombination); experiment: Recombination assay: HPRT mutation reversion frequency; format: cell-based, Chinese hamster; settings: for reversion frequency: alone, SNS-595 2 μM, doxorubicin 0.5 μM, 4 hr treatment; for effect of S-phase block (aphidicolin co-treatment) on induced reversion rate / recombination events: co-treatment with aphidicolin 0.5 μM
Source text: as §2, §3

[6] = system: SPD8 cells; experiment: Pulsed field gel electrophoresis (PFGE) of DNA fragments; format: cell-based, Chinese hamster
Source text: as §2
Two million (2×10^6) SPD8 cells were seeded in flasks (75 cm^2) and incubated overnight. Subsequently, cells were treated with SNS-595 (20 μM) or doxorubicin (3 μM) and in co-treatment with aphidicolin (3 μM) for 4 hr before being melted into agarose insert (1×10^6 cells/70 μL 1% InCert Agarose, BMA). Inserts were transferred to 0.5 M EDTA, 1% N-laurylsarcosyl and proteinase K (1 mg/mL) and incubated at 50° C. for 48 hr and thereafter washed four times in TE-buffer (2 hr between each wash) prior to loading onto an agarose separation gel (1% Chromosomal grade agarose, Bio-Rad). Separation was performed on a CHEF DR III system (BioRad; 120° field angle, 240 seconds switch time, 4 V/cm) for 18 hr or for 24 hours with 60 to 240 seconds switch time. The gel was stained with ethidium bromide for 5 hr and subsequently analyzed by scanning fluorescence reader (Molecular Imager FX, BioRad) using Quantative One software.

| Compound | IC50 [1] [nM] | increase in sensitivity in cells mutant for BRCA2 as compared to cells expressing functional BRCA2 [1] | sensitivity of U-2 OS cells depleted for BRCA2 using siRNA relative to wild-type cells [2] [×] | IC50 [3] [nM] | cloning efficiency [4] | effect of aphidicolin (S-phase blocker) co-treatment on cytotoxicity [4] | reversion frequency [5] | effect of S-phase block (aphidicolin co-treatment) on induced reversion rate / recombination events [5] | production of small DNA fragments ([6]; FIG. 5 and 6, SNS-595 20 μM, doxorubicin 3 μM, 4 hr, PFGE 18 hr and 24 hr runs) | production of small DNA fragments ([6]; FIG. 7, 18 hr PFGE run, 240 seconds switch time) | production of small DNA fragments ([6]; FIG. 8, 24 hr PFGE run, 60 to 240 seconds switch time) |
| --- | --- | --- | --- | --- | --- | --- | --- | --- | --- | --- | --- |
| CN[C@H]1CN(c2ccc3c(=O)c(C(=O)O)cn(-c4nccs4)c3n2)C[C@@H]1OC [SNS-595, (+)-1,4-dihydro-7-[(3S,4S)-3-methoxy-4-(methylamino)-1-pyrrolidinyl]-4-oxo-1-(2-thiazolyl)-1,8-naphthyridine-3-carboxylic acid] | 140 | approximately 5 fold | 4.6 | 720 | significantly impaired | reduction in cytotoxicity | increased | no effect |  |  |  |
| COc1cccc2c1C(=O)c1c(O)c3c(c(O)c1C2=O)C[C@@](O)(C(=O)CO)C[C@@H]3O[C@H]1C[C@H](N)[C@H](O)[C@H](C)O1 [doxorubicin] | 50 | approximately 4 fold |  | 190 | significantly impaired | reduction in cytotoxicity | increased | significantly reduced | more small DNA fragments | more small DNA fragments | more small DNA fragments |
